Assay results from patent US20230365537A1, “POLO LIKE KINASE 4 INHIBITORS” (ORIC Pharmaceuticals, Inc., priority 2021, published 2023).

Tests used:
human recombinant PLK4 = human recombinant PLK4 (Homo sapiens (Human), UniProt O00444); assay: PLK4 Biochemical Assay (ADP-Glo); conditions: 0.5 nM PLK4, 8.0 µM ATP, 4.7 µM MBP, 6 hours at RT
Summary of the method: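 Luminescent ADP-Glo detection quantified ADP production, with ATP depletion for 40 min and detection for 30 min at room temperature. Compound and PLK4 (1.0 nM stock addition) were preincubated 15 min in HEPES pH 7.5 buffer containing MgCl2, EGTA, DTT, Brij-35 and BSA. IC50 values were obtained by four-parameter nonlinear regression.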

CHP-134 cells = assay: CHP134 CellTiter-Glo (CTG) Assay; assay type: cell-based; conditions: Homo sapiens, CHP-134, 120 h, 5 days, viable cells by CellTiter-Glo
Protocol: Cells were seeded (200 cells/well) in 384-well plates for 16 hours. On day two, nine serial 1:3 compound dilutions were made in DMSO in a 96-well plate. The compounds were then further diluted into growth media using a BRAVO robot (Agilent, Santa Clara, CA). The diluted compounds were then added to quadruplicate wells in the 384-well cell plate and incubated at 37° C. and 5% CO2. After 5 days, relative numbers of viable cells were measured by luminescence using CellTiter-Glo® (Promega) according to the manufacturer’s instructions and read on a SPARK Multimode Microplate Reader (Tecan, Mannedorf Switzerland). The IC50 calculations for the values reported in Table 2 were carried out using Prism 6.0 software (GraphPad, San Diego).

[1] = biological target: human recombinant Aurora A (Homo sapiens (Human), UniProt O14965); assay: Aurora A Kinase Biochemical Assay (ADP-Glo); conditions: ratio of Aurora A IC50 to PLK4 IC50 (selectivity)
[2] = biological target: human recombinant Aurora B (Homo sapiens (Human), UniProt Q96GD4); assay: Aurora B Kinase Biochemical Assay (ADP-Glo); conditions: ratio of Aurora B IC50 to PLK4 IC50 (selectivity)
Summary of the method: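 IC50 derived by four-parameter nonlinear fit of ADP-Glo luminescence (ADP produced). Compound was preincubated 15 min at RT with 20 nM recombinant human Aurora B, in 50 mM HEPES pH 7.5, 10 mM MgCl2, 1 mM EGTA, 1 mM DTT, 0.01% Brij-35/BSA.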

Chain of human recombinant PLK4 (O00444 whole entry): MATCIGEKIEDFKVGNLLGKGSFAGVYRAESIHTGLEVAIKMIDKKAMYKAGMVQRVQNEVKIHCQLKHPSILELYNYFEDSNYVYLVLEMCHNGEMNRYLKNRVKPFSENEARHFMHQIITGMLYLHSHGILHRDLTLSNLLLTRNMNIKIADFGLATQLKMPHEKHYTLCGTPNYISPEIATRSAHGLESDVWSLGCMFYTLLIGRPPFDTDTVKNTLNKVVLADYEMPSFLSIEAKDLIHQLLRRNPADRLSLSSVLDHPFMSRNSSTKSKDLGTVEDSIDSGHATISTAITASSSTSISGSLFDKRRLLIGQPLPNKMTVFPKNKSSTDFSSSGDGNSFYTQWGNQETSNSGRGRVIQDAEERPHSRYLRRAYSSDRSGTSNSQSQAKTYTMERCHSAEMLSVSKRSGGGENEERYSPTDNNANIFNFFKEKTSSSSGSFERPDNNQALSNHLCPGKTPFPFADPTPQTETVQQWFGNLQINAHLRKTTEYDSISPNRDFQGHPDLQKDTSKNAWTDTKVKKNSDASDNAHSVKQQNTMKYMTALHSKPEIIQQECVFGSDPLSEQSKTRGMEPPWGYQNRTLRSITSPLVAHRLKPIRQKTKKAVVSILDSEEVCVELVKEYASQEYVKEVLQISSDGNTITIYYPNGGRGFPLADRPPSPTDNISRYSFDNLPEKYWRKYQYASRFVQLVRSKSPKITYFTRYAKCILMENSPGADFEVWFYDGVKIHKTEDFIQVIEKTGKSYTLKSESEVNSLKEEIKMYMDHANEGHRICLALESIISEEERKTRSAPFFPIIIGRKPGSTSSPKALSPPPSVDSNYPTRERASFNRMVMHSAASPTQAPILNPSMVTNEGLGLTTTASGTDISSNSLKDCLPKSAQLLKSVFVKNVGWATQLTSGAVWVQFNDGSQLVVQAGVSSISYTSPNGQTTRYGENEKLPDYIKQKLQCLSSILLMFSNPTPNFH
Chain of human recombinant Aurora B (Q96GD4 whole entry): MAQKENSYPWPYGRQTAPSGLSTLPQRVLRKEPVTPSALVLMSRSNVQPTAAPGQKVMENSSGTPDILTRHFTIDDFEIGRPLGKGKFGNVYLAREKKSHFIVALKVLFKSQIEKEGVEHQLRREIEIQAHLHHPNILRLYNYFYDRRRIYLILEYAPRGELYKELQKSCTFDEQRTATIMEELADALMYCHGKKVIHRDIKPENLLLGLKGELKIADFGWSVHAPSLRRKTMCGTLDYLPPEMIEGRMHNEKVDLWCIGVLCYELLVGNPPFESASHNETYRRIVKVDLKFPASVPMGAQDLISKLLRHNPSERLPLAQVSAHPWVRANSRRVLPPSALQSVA
Chain of human recombinant Aurora A (O14965 whole entry): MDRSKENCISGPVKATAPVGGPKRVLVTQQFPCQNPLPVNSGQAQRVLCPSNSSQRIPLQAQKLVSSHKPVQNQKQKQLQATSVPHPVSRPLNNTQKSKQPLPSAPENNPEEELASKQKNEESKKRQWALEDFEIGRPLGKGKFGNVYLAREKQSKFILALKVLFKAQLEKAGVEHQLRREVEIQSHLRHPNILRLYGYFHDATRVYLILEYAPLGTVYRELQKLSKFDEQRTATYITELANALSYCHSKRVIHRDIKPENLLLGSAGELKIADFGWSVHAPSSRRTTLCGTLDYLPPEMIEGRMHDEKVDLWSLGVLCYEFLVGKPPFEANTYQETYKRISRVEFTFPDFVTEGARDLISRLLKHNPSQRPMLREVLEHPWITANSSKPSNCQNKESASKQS

SMILES	IC50 (human recombinant PLK4) [nM]	[Aurora A IC50 (nM)]/[PLK4 IC50 (nM)] [1]	[Aurora B IC50 (nM)]/[PLK4 IC50 (nM)] [2]	IC50 (CHP-134 cells) [nM]
COc1ccc2c(c1)[C@]1(C[C@H]1c1ccc3c(Nc4nc(C(C)C)cnc4OC)n[nH]c3c1)C(=O)N2 [Example 83, (1R,2S)-5′-methoxy-2-(3-{[3-methoxy-6-(propan-2-yl)pyrazin-2-yl]amino}-1H-indazol-6-yl)spiro[cyclopropane-1,3′-indol]-2′(1′H)-one]	2.24	908.4004	333.3333	277
COc1ccc2c(c1)[C@]1(C[C@H]1c1ccc3c(Nc4nc(C(C)C)nc(N5CCOCC5)c4OC)n[nH]c3c1)C(=O)N2 [Example 85, (1R,2S)-5′-methoxy-2-(3-{[5-methoxy-6-(morpholin-4-yl)-2-(propan-2-yl)pyrimidin-4-yl]amino}-1H-indazol-6-yl)spiro[cyclopropane-1,3′-indol]-2′(1′H)-one]	1.91	5554.974	3067.539	107
COc1ccc2c(c1)[C@]1(C[C@H]1c1ccc3c(Nc4cc(C)cnc4OC)n[nH]c3c1)C(=O)N2 [Example 89, (1R,2S)-5′-methoxy-2-{3-[(2-methoxy-5-methylpyridin-3-yl)amino]-1H-indazol-6-yl}spiro[cyclopropane-1,3′-indol]-2′(1′H)-one]	2.32	1736.729	314.3289	10000

Continued by falling IC50 (human recombinant PLK4), values first:

IC50 (human recombinant PLK4) [nM]	[Aurora A IC50 (nM)]/[PLK4 IC50 (nM)] [1]	[Aurora B IC50 (nM)]/[PLK4 IC50 (nM)] [2]	SMILES	IC50 (CHP-134 cells) [nM]
21.2	1414.623	669.3396	COc1ccc2c(c1)[C@]1(C[C@H]1c1ccc3c(Nc4cc(C)ncc4OC)n[nH]c3c1)C(=O)N2 [Example 86, (1R,2S)-5′-methoxy-2-{3-[(5-methoxy-2-methylpyridin-4-yl)amino]-1H-indazol-6-yl}spiro[cyclopropane-1,3′-indol]-2′(1′H)-one]	459
3.63	1478.393	220.4239	COc1ccc2c(c1)[C@]1(C[C@H]1c1ccc3c(Nc4nc(C5CC5)nc(N5CC(O)C5)c4OC)n[nH]c3c1)C(=O)N2.O=C(O)C(F)(F)F [Example 81, (1R,2S)-2-(3-{[2-cyclopropyl-6-(3-hydroxyazetidin-1-yl)-5-methoxypyrimidin-4-yl]amino}-1H-indazol-6-yl)-5′-methoxyspiro[cyclopropane-1,3′-indol]-2′(1′H)-one]	965
2.67	1997.754	44.7979	COc1ccc2c(c1)[C@]1(C[C@H]1c1ccc3c(Nc4nc(C)ccc4OC)n[nH]c3c1)C(=O)N2 [Example 88, (1R,2S)-5′-methoxy-2-{3-[(3-methoxy-6-methylpyridin-2-yl)amino]-1H-indazol-6-yl}spiro[cyclopropane-1,3′-indol]-2′(1′H)-one]	1810
1.58	973.4177	133.9241	COc1ccc2c(c1)[C@]1(C[C@H]1c1ccc3c(Nc4nc(C)ncc4OC)n[nH]c3c1)C(=O)N2 [Example 87, (1R,2S)-5′-methozy-2-{3-[(5-methoxy-2-methylpyrimidin-4-yl)amino]-1H-indazol-6-yl}spiro[cyclopropane-1,3′-indol]-2′(1′H)-one]	235
1.28	39123.63	3151.017	COc1ccc2c(c1)[C@]1(C[C@H]1c1ccc3c(Nc4nc(C(C)C)nc(N5CCS(=O)(=O)CC5)c4OC)n[nH]c3c1)C(=O)N2 [Example 84, (1R,2S)-2-(3-((6-(1,1-dioxidothiomorpholino)-2-isopropyl-5-methoxypyrimidin-4-yl)amino)-1H-indazol-6-yl)-5′-methoxyspiro[cyclopropane-1,3′-indolin]-2′-one]	395
